Measured values: ChEMBL document CHEMBL1131349, “4-[(1H-imidazol-4-yl) methyl] benzamidines and benzylamidines: novel antagonists of the histamine H3 receptor” (Bioorg Med Chem Lett, 1998)
pKi: −log10 of the molar value.

System: Cavia porcellus
Experiment: In vivo antihistaminic (Histamine H3) activity was determined in guinea pig
Format: functional
Conditions: not given

`S=C(NC1CCCCC1)N1CCC(c2cnc[nH]2)CC1` [THIOPERAMIDE] and `N=C(NCc1ccc(Cl)cc1)c1ccc(Cc2c[nH]cn2)cc1` are within 1.5-fold of each other in ED50: 0.4 mg/kg for the first, 0.3 mg/kg for the second.

For `N=C(Cc1ccc(Cc2c[nH]cn2)cc1)NCc1ccc(Cl)cc1`, the ED50 was 0.3 mg/kg.

Biological target: Histamine H3 receptor (Cavia porcellus, UniProt Q9JI35)
Experiment: Inhibition of N-alpha-methylhistamine binding to histamine H3 receptor of guinea pig brain membranes
Conditions: not given

Sequence of Histamine H3 receptor (Q9JI35 whole entry): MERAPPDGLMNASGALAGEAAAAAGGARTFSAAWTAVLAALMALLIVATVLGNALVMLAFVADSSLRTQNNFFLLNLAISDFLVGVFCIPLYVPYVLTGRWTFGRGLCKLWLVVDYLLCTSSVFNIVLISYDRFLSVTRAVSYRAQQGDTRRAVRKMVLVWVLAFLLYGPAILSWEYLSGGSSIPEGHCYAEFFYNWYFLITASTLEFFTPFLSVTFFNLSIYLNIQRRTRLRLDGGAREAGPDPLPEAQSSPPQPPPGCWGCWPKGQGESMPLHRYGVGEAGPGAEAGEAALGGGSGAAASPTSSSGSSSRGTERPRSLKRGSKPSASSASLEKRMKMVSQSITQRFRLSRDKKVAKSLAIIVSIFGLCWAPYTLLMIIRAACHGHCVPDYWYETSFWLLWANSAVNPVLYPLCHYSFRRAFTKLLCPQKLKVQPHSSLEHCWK

Going from `N=C(CCc1ccc(Cc2cnc[nH]2)cc1)NCc1ccc(Cl)cc1` to `N=C(NCc1ccc(Cl)cc1)c1ccc(Cc2c[nH]cn2)cc1`, the pKi rises from 6.76 to 7.80 (1.04 log units). The second binds more tightly here.

First: N=C(N)c1cccc(-c2c[nH]cn2)c1
Second: N=C(N)c1ccc(CCc2cnc[nH]2)cc1
The pKi of the first is 0.32 log units lower: 6.46 for the first, 6.78 for the second. The second binds more tightly here.

First: N=C(N)CCCc1c[nH]cn1
Second: COc1ccc(C/N=C(\N)c2ccc(Cc3c[nH]cn3)cc2)cc1
The pKi of the first is 2.63 log units higher: 8.92 for the first, 6.29 for the second.

`S=C(NC1CCCCC1)N1CCC(c2cnc[nH]2)CC1` [THIOPERAMIDE] was tested, and the pKi was 8.14.

Biological target: Histamine H3 receptor (Cavia porcellus) (UniProt Q9JI35)
Experiment: Compound was tested for inhibition of N-alpha-methylhistamine binding to histamine H3 receptor in guinea pig brain membranes
Format: cell membranes
Conditions: Membrane, concentration not given here

Sequence of Histamine H3 receptor (Cavia porcellus) (Q9JI35 whole entry): as above

First: N=C(NCc1ccncc1)c1ccc(Cc2c[nH]cn2)cc1
Second: N=C(N)c1ccc(-c2c[nH]cn2)cc1
The inhibition of the first is lower: 44% for the first, 49% for the second.

System: Cavia porcellus
Experiment: Percent inhibition of histamine H3 mediated antihistaminic activity in guinea pig was determined in vivo
Format: functional
Conditions: not given

`N=C(N)c1ccc(Cc2c[nH]cn2)cc1` was tested, and the Inhibition was 33%.
